The subject of series [1] is blood clot. Kind of series: Thrombolysis assay (clot lysis). The note with it: sample solution in DMSO, 3 h at 37 °C, ABTS positive control, triplicate. Set-up: species or system human. As to the method: The thrombolytic assay was performedaccording tomethodologyin the literature. A blood sample (3 mL) was collected from a healthy human donor, and 500 µL was transferred to pre-weighed, clean Eppendorf tubes. The tubes containing the blood wereweighed again andincubatedfor 1 h at 37 °C to induce clot formation. The serum was then discarded, and the tube containing theclot was weighed. An amount of 40 µL of sample solution in DMSO was added to the clot.The tubes were again incubated for 3 h at 37 °C, and the lysis resultswere observed. ABTS was used as a positivecontrol, while DMSO was used as a negative control in this assay. The experiment was performed in triplicate, and the lysis percentage was calculated using the formula below: % Age clot lysis =Initial clot weight−Final clot weight ×100/Initial clot weight

For series [2], the system named is A549 lung cancer cell line. Kind of series: MTT assay, cell viability. It is filed as cell-based, human. The note with it: A549, 48 h, mean ± SD in triplicate. As to the method: The A549 cell line was treated with synthesized compounds in a final concentration of DMSO (dimethyl sulfoxide) of less than 1%.
The cytotoxic therapeutic potential of synthesized structural hybrids was evaluated usinga standard MTT (3-(4,5-dimethylthiazol-2-yl)-2,5-diphenyltetrazolium bromide) assay. The cells of theA549 cell line were grown, overnight, in a microculture of 96-well plates. […] Following this, 150 μL of control DMSO was added to formazan crystals.The percentage of cell viability was determined viaquantified absorbance in a microplate readerat 490 nm wavelength.

Series [3] is described as follows: Hemolysis assay. The class given is cell-based. The following applies: human, red blood cells (washed RBC pellet); read-out: Percentage Hemolysis ± SD. The method, then:
A fresh blood sample (5 mL) from a healthy donor was collected in an EDTA tube. The blood was transferred to microcentrifuge tubes and centrifugedfor 5 min at 1000 rpm to obtain the red blood cells (RBCs). The supernatant was then discarded, and the RBCpellet was washed three times with phosphate-buffered saline (PBS). The RBC pellet was collected after washing and 20µL of sample solution in DMSO was added. The tubes were incubated at 37 °C for 60 min. Having been removed from the incubator, the tubes were recentrifuged at 13,000 rpm for 5 min. The supernatant was collected and diluted with chilled PBS solution. Absorbance was recordedat 517 nm. […] The experiment wasconducted in triplicate, and the RBC lysis percentage was calculated using this formula [40]: % Age hemolysis =Absorbance of sample−Absorbance of negative control ×100/Absorbance of positive control

“And” between values parts separate entries of the source, which are not always exact repeats. Identical values can stand only once.

The record followed here is article PMC8838991, “Exploring the Synergistic Anticancer Potential of Benzofuran–Oxadiazoles and Triazoles: Improved Ultrasound- and Microwave-Assisted Synthesis, Molecular Docking, Hemolytic, Thrombolytic and Anticancer Evaluation of Furan-Based Molecules” (Molecules, 2022).

In general, IC50 refers to the concentration at which inhibition is half-maximal. Read a high IC50 as lower potency. One may read the melting point as the temperature of the solid-liquid transition.

Take `CCn1c(=NN=c2sc3cc(S(=O)(=O)O)ccc3n2CC)sc2cc(S(=O)(=O)O)ccc21` [ABTS, reference compound]: the “Percentage Thrombolysis ± SD” value in series [1] is 86%.
The compound `N.N.[Cl][Pt][Cl]` [Cisplatin, cisplatin, reference compound] yielded an IC50 in series [2] of 3.88 ± 0.76 µM.
In turn, `O=C(CSc1nnc(-c2cc3ccccc3o2)o1)Nc1ccccc1` [Compound 5a] yielded a melting point of 212 to 214 °C. For the same compound, the hemolysis at 60 min in series [3] is 3.7 ± 0.008%. Besides, in series [1], the “Percentage Thrombolysis ± SD” value was 56.8% and 56.8 ± 0.081%. For the same compound, the “Percentage Cell viability A549 (Lung Cancer) ± SD” value in series [2] is 64.1 ± 1.72%.
As to `O=C(CSc1nnc(-c2cc3ccccc3o2)o1)N1CCOCC1` [Compound 5b], the melting point is 181 to 182 °C. The hemolysis at 60 min in series [3] turned out to be 22.12 ± 0.008%. Moreover, in series [1], the “Percentage Thrombolysis ± SD” value was 50.7% and 50.7 ± 0.081%. The “Percentage Cell viability A549 (Lung Cancer) ± SD” value in series [2] was 45.99 ± 4.22%.
On to `COc1ccccc1NC(=O)CSc1nnc(-c2cc3ccccc3o2)o1` [Compound 5d], for which the melting point lay within 176 to 178 °C. In series [3], the hemolysis at 60 min is 5.02 ± 0.008%. Also, the “Percentage Thrombolysis ± SD” value in series [1] was 53.5% and 53.5 ± 0.081%. For the same compound, the “Percentage Cell viability A549 (Lung Cancer) ± SD” value in series [2] is 27.49 ± 1.90%. The compound also returned an IC50 in series [2] (Homo sapiens) of 6.3 ± 0.7 µM.
Compound `CCOc1ccc(NC(=O)CSc2nnc(-c3cc4ccccc4o3)o2)cc1` [Compound 5e] showed a melting point of 154 to 156 °C. Further, in series [3], the hemolysis at 60 min is 0.5 ± 0.008%. In addition, the “Percentage Thrombolysis ± SD” value in series [1] is 52.4% and 52.4 ± 0.081%. The “Percentage Cell viability A549 (Lung Cancer) ± SD” value in series [2] came out at 34.47 ± 2.19%. In series [2] (Homo sapiens), this compound had an IC50 of 17.9 ± 0.46 µM.
`CCN(CC)C(=O)CSc1nnc(-c2cc3ccccc3o2)o1` [Compound 5g] gave a melting point of 96 to 97 °C. Moreover, the hemolysis at 60 min in series [3] came to 4.86 ± 0.047%. Further, the “Percentage Thrombolysis ± SD” value in series [1] is 48.3% and 48.3 ± 0.081%. The “Percentage Cell viability A549 (Lung Cancer) ± SD” value in series [2] was 41.45 ± 4.10%.
With `O=C(CSc1nnc(-c2cc3ccccc3o2)n1-c1ccccc1)N1CCOCC1` [Compound 7b], the melting point lay within 173 to 175 °C. In addition, the hemolysis at 60 min in series [3] amounted to 0.1 ± 0.004%. In addition, the “Percentage Thrombolysis ± SD” value in series [1] was 52.5% and 52.5 ± 0.081%. Moreover, in series [2], the “Percentage Cell viability A549 (Lung Cancer) ± SD” value is 57.62 ± 4.94%.
`Cc1ccc(NC(=O)CSc2nnc(-c3cc4ccccc4o3)n2-c2ccccc2)c(C)c1` [Compound 7f]: the melting point fell in the range of 226 to 227 °C. Further, the hemolysis at 60 min in series [3] was 15.7 ± 0.081%. Moreover, the “Percentage Thrombolysis ± SD” value in series [1] was 61.4% and 61.4 ± 0.081%. Moreover, the “Percentage Cell viability A549 (Lung Cancer) ± SD” value in series [2] is reported as 99.1 ± 5.04%.
`O=C(CSc1nnc(-c2cc3ccccc3o2)n1-c1ccccc1)Nc1ccc(Cl)cc1` [Compound 7g] gave a melting point of 229 to 230 °C. The hemolysis at 60 min in series [3] was found to be 23.4 ± 0.081%. For the same compound, in series [1], the “Percentage Thrombolysis ± SD” value was 49.06% and 49.06 ± 0.047%. For the same compound, the “Percentage Cell viability A549 (Lung Cancer) ± SD” value in series [2] was 36.26 ± 0.41%. Also, in series [2] (Homo sapiens), it took 19.8 ± 0.54 µM to reach half-maximal inhibition (IC50).
`O=C(CSc1nnc(-c2cc3ccccc3o2)n1-c1ccccc1)Nc1ccc(Cl)cc1Cl` [Compound 7h] came in with a melting point of 217 to 219 °C. For the same compound, the hemolysis at 60 min in series [3] amounted to 14.8 ± 0.081%. Besides, the “Percentage Thrombolysis ± SD” value in series [1] was 48.1% and 48.1 ± 0.081%. In series [2], the “Percentage Cell viability A549 (Lung Cancer) ± SD” value was 29.29 ± 3.98%. Also, 10.9 ± 0.94 µM corresponded to half-maximal inhibition in series [2] (Homo sapiens) (IC50).
In series [2] (Homo sapiens), `C[C@@H](Oc1cc(-c2cnn(C3CCNCC3)c2)cnc1N)c1c(Cl)ccc(F)c1Cl` [Crizotinib, crizotinib, reference compound] gave an IC50 of 8.54 ± 0.84 µM.
